Experimental data reported in patent US7834005B2, “Pyrrolobenzodiazepine derivatives, compositions comprising the same and methods related thereto” (The United States of America as represented by the …, priority 2003, dated 2010).
Where “and” joins values, the source holds several entries; their conditions need not be identical. Equal entries are not always repeated.

Experiments:
[1] = tested on: OVCAR-3 (ovarian ca); test: in vivo efficacy, OVCAR-3 (ovarian ca) subcutaneous tumor model; set-up: species or system athymic mice; details: OVCAR-3, Early-SC, intravenous
Description: (§1) NSC 694501 was evaluated for in vivo efficacy in athymic mice bearing 8 subcutaneous tumor models: LOX and UACC-62 (melanoma), OVCAR-3 and OVCAR-5 (ovarian ca), MDA-MB-435 (breastca), SF-295 and C-6 (glioma), and LS-174T (colonca). The models were selected on the basis of hollow fiber assays and in vitro time course assays.
(§2) A qDx5 schedule conferred better efficacy than a q4Dx3 schedule in each of the 4 models tested on two schedules. NSC 694501 was active over a wide dosage range in athymic mice using compound prepared fresh just prior to injection in 1% EtOH vehicle: On a qDx5 schedule, the maximum tolerated dose was approximately 120 μg/kg/dose and the minimum effective dose in one of the most sensitive models (SF-295) was 16 μg/kg/dose.

[2] = as above; set-up: species or system athymic mice; details: athymic, mouse, in vivo, OVCAR-3, Early-SC
Description: as §1, §2

[3] = tested on: C-6 (rat glioma); test: in vivo efficacy, C-6 (rat glioma) in nude rats; details: i.v.; for BW Loss / Growth Delay % [(T − C)/C] / Optimal % T/C: C-6, Early-SC, nude rats
[4] = tested on: standard panel of 12 tumor cell lines; test: hollow fiber assay; type: in vivo, mice
Description: A standard panel of 12 tumor cell lines was used for the routine hollow fiber screening. These included NCI-H23, NCI-H522, MDA-MB-231, MDA-MB-435, SW-620, COLO 205, LOX, UACC-62, OVCAR-3, OVCAR-5, U251 and SF-295. In addition, alternate lines were used for specialized testing of compounds on a nonroutine basis. The cell lines were cultivated in RPMI-1640 containing 10% FBS and 2 mM glutamine. On the day preceeding hollow fiber preparation, the cells were given a supplementation of fresh medium to maintain log phase growth. For fiber preparation, the cells were harvested by standard trypsinization technique and resuspended at the desired cell density ((2-10×10^6 cells/ml). The cell suspension was flushed into 1 mm (internal diameter) polyvinylidene fluoride hollow fibers with a molecular weight exclusion of 500,000 Da. The hollow fibers were heat-sealed at 2 cm intervals and the samples generated from these seals were placed into tissue culture medium and incubated at 37° C. in 5% CO2 for 24 to 48 hours prior to implantation. A total of 3 different tumor lines were prepared for each experiment so that each mouse receives 3 intraperitoneal implants (1 of each tumor line) and 3 subcutaneous implants (1 of each tumor line). On the day of implantation, samples of each tumor cell line preparation were quantitated for viable cell mass by a stable endpoint MTT assay so that the time zero cell mass is known. Mice were treated with experimental agents starting on day 3 or 4 following fiber implantation and continuing daily for 4 days. Each agent was administered by intraperitoneal injection at 2 dose levels. The fibers were collected from the mice on the day following the fourth compound treatment and subjected to the stable endpoint MTT assay. The optical density of each sample was determined spectrophotometrically at 540 nm and the mean of each treatment group was calculated. The percent net growth for each cell line in each treatment group was calculated and compared to the percent net growth in the vehicle treated controls. A 50% or greater reduction in percent net growth in the treated samples compared to the vehicle control samples was considered a positive result. Each positive result was given a score of 2 and all of the scores were totaled for a given compound. The maximum possible score for an agent is 96 (12 cell lines×2 sites×2 dose levels×2 [score]).

[5] = in vivo efficacy, LOX (melanoma) tumor model; set-up: species or system athymic mice; details: athymic, mouse, in vivo, intravenous, QD X5, intravenous
Description: as §1, §2

[6] = tested on: LOX (melanoma); test: in vivo efficacy, LOX (melanoma) tumor model; set-up: species or system athymic mice; details: intravenous
Description: as §1, §2

[7] = tested on: LS-174 (human colon cancer); test: in vivo efficacy, LS-174 (human colon cancer) in nude rats; details: i.v.; for BW Loss / Growth Delay % [(T − C)/C] / Optimal % T/C: LS-174, Early-SC, nude rats
[8] = Early-SC, QD X5, 0.054 mg/kg/dose

SMILES: C=C1C[C@H]2C=Nc3cc(OCCCOc4cc5c(cc4OC)C(=O)N4CC(=C)C[C@H]4C=N5)c(OC)cc3C(=O)N2C1 [NSC 694501]
- BW Loss ([1]; Q4D X3, 0.45 mg/kg/dose): 6.6% and 13.9%
- Growth Delay % [(T − C)/C] ([1]; Q4D X3, 0.45 mg/kg/dose): 73% and 55%
- Optimal % T/C ([1]; Q4D X3, 0.45 mg/kg/dose): 20% and 10%
- BW Loss ([1]; QD X5, .27 mg/kg/dose): 7.9%
- Growth Delay % [(T − C)/C] ([1]; QD X5, .27 mg/kg/dose): 114%
- Optimal % T/C ([1]; QD X5, .27 mg/kg/dose): 9%
- value in parentheses in Growth Delay column ([1]; QD X5, .27 mg/kg/dose): 1.9 L
- MTD at 9 days ([2]; Q4D X3, intravenous): 0.45 mg/kg
- MTD at 5 days ([2]; QD X5, intravenous): 0.27 mg/kg
- BW Loss ([3]; QD X5, 0.018 mg/kg): 0.0%
- Growth Delay % [(T − C)/C] ([3]; QD X5, 0.018 mg/kg): 13%
- Optimal % T/C ([3]; QD X5, 0.018 mg/kg): 56%
- BW Loss ([3]; QD X5, 0.027 mg/kg): 6.3%
- Growth Delay % [(T − C)/C] ([3]; QD X5, 0.027 mg/kg): 20%
- Optimal % T/C ([3]; QD X5, 0.027 mg/kg): 47%
- BW Loss ([3]; QD X5, 0.040 mg/kg): 0.8%
- Growth Delay % [(T − C)/C] ([3]; QD X5, 0.040 mg/kg): 49%
- Optimal % T/C ([3]; QD X5, 0.040 mg/kg): 24%
- tolerability and efficacy ([3]; nude rats bearing C-6, 27 and 40 μg/kg/dose, qDx5): well tolerated and efficacious
- cell lines killed ([4]; hollow fiber assay): three cell lines killed: UACC-62 melanoma, OVCAR-3 ovarian cancer, and MDA-MB-435 breast cancer
- hollow fiber assay score, intraperitoneal [i.p.] ([4]; intraperitoneal implants): 40
- hollow fiber assay total score ([4]; ip + sc, maximum possible score 96): 54
- hollow fiber assay score, subcutaneous [s.c.] ([4]; subcutaneous implants): 14
- MTD at 5 days ([5]; Early-SC): 0.054 mg/kg
- MTD at 5 days ([5]; IP): 0.4 mg/kg
- BW Loss [6, 8]: 17.6%
- Growth Delay % [(T − C)/C] [6, 8]: 498%
- Optimal % T/C [6, 8]: 7%
- value in parentheses in Growth Delay column [6, 8]: 4.3 L
- BW Loss ([6]; IP, QD X5, 0.40 mg/kg/dose): 20.7%
- ILS ([6]; IP, QD X5, 0.40 mg/kg/dose): [−10% ILS]
- BW Loss ([7]; QD X5, 0.018 mg/kg): 0.0%
- Growth Delay % [(T − C)/C] ([7]; QD X5, 0.018 mg/kg): 43%
- Optimal % T/C ([7]; QD X5, 0.018 mg/kg): 41%
- BW Loss ([7]; QD X5, 0.027 mg/kg): 2.2%
- Growth Delay % [(T − C)/C] ([7]; QD X5, 0.027 mg/kg): 93%
- Optimal % T/C ([7]; QD X5, 0.027 mg/kg): 21%
- BW Loss ([7]; QD X5, 0.040 mg/kg): 1.4%
- Growth Delay % [(T − C)/C] ([7]; QD X5, 0.040 mg/kg): 83%
- Optimal % T/C ([7]; QD X5, 0.040 mg/kg): 17%
- tolerability and efficacy ([7]; nude rats bearing LS-174, 27 and 40 μg/kg/dose, qDx5): well tolerated and efficacious
